Patent US20250136618A1, “ANTIBIOTIC PYRAZINOTHIAZINE DERIVATIVES AND PROCESS OF PREPARATION THEREOF” (Bugworks Research India PVT Ltd, priority 2021, published 2025)
In brackets after ≈: the same amount, converted by molar mass.

Legend:
Format in all cases: cell-based
[1] = tested on: Pseudomonas aeruginosa; test: MIC90 determination, clinical strains (CLSI); conditions: for MIC90: Pseudomonas aeruginosa, N=34, read-out: MIC 90 Pseudomonas aeruginosa
[2] = tested on: Klebsiella aerogenes, K. oxytoca; test: MIC90 determination, clinical strains (CLSI); conditions: for MIC90: N=17, read-out: MIC 90 Klebsiella aerogenes, K. oxytoca
[3] = tested on: Klebsiella pneumoniae; test: MIC90 determination, clinical strains (CLSI); conditions: for MIC90: Klebsiella pneumoniae, N=86, read-out: MIC 90 Klebsiella pneumoniae
[4] = tested on: Escherichia coli ATCC 25922; test: Minimum Inhibitory Concentration (MIC) in LB media; conditions: for MIC: Escherichia coli, ATCC25922, read-out: Minimum Inhibitory Concentration E. coli ATCC 25922
Text: (§1) The compounds of Formula Ia and Formula Ib are of interest due to their potent antibacterial effects. The ability of the compounds disclosed herein to achieve an antibacterial effect may be evaluated with regard to their ability to inhibit the growth of bacterial species like Escherichia coli ATCC 25922, Staphylococcus aureus ATCC 29213, Klebsiella pneumoniae ATCC 13883, Acinetobacter baumannii ATCC 19606, Pseudomonas aeruginosa ATCC 27853 and Enterococcus faecalis ATCC 29212 using an assay based on the following Minimum Inhibitory Concentration (MIC) protocol:
(§2) The test bacteria were grown in Luria Bertani Broth (HIMEDIA M1245), 25 g of the powder was dissolved in 1000 ml distilled water and sterilized by autoclaving at 15 lbs pressure (121° C.) for 20 minutes. The medium sterility was checked by incubating at 37° C. for a period of 48 h. Bacterial cultures that were stored as glycerol stocks at −80° C. were subcultured on LB agar plates to obtain isolated colonies. A single colony of each strain was cultured in LB broth. The cultures were incubated at 37° C., 200 rpm till they reached an optical density (OD at 600 nm) of 0.8 to 1. This log phase culture was diluted in LB broth to a cell number of 5-8*10^5 CFU/mL to be used as inoculum for MIC experiments. Test compounds were dissolved in dimethyl sulfoxide (DMSO) to a stock concentration of 4 mg/ml. A two-fold dilution series of this DMSO stock was prepared in a 96 well V bottom microtitre plate from rows A to H. A 3 μL volume of these dilutions are transferred to a 96-well flat bottom microtitre assay plate. Controls to monitor the effects of DMSO and media sterility were included. Each well was inoculated with 150 μL of the above diluted culture. The plates were incubated at 37° C. overnight in a humidified incubator. The following morning, the plates were read using a Spectrophotometer at 600 nm wavelength. […] The antibacterial activity (MIC) determined against representative gram-positive (S. aureus, E. faecalis) and gram-negative (E. coli, Aeruginosa, K. pneumoniae, and A. baumannii) pathogen are reported Table 1.

[5] = tested on: Klebsiella pneumoniae ATCC 13883; test: Minimum Inhibitory Concentration (MIC) in LB media; conditions: for MIC: Klebsiella pneumoniae, ATCC13883, read-out: Minimum Inhibitory Concentration K. pneumoniae ATCC 13883
Text: as §1, §2

[6] = tested on: Acinetobacter baumannii ATCC 19606; test: Minimum Inhibitory Concentration (MIC) in LB media; conditions: for MIC: Acinetobacter baumannii, ATCC19606
Text: as §1, §2

[7] = tested on: Staphylococcus aureus ATCC 29213; test: Minimum Inhibitory Concentration (MIC) in LB media; conditions: for MIC: Staphylococcus aureus, ATCC29213, read-out: Minimum Inhibitory Concentration S. aureus ATCC 29213
Text: as §1, §2

[8] = tested on: Enterococcus faecalis ATCC 29212; test: Minimum Inhibitory Concentration (MIC) in LB media; conditions: for MIC: Enterococcus faecalis, ATCC29212, read-out: Minimum Inhibitory Concentration E. faecalis ATCC 29212
Text: as §1, §2

[9] = tested on: Pseudomonas aeruginosa ATCC 27853; test: Minimum Inhibitory Concentration (MIC) in LB media; conditions: for MIC: Pseudomonas aeruginosa, ATCC27853
Text: as §1, §2

[10] = tested on: Citrobacter freundii; test: MIC90 determination, clinical strains (CLSI); conditions: for MIC90: Citrobacter freundii, N=19, read-out: MIC 90 Citrobacter freundii
[11] = tested on: Morganella morganii; test: MIC90 determination, clinical strains (CLSI); conditions: for MIC90: Morganella morganii, N=11, read-out: MIC 90 Morganella morganii
[12] = tested on: Escherichia coli; test: MIC90 determination, clinical strains (CLSI); conditions: for MIC90: Escherichia coli, N=38, read-out: MIC 90 Escherichia coli
[13] = tested on: Providencia rettgeri, P. stuartii; test: MIC90 determination, clinical strains (CLSI); conditions: for MIC90: N=12, read-out: MIC 90 Providencia rettgeri, P. stuartii
[14] = tested on: Serratia marcescens; test: MIC90 determination, clinical strains (CLSI); conditions: for MIC90: Serratia marcescens, N=15, read-out: MIC 90 Serratia marcescens
[15] = tested on: Enterobacter cloacae; test: MIC90 determination, clinical strains (CLSI); conditions: for MIC90: Enterobacter cloacae, N=26, read-out: MIC 90 Enterobacter cloacae
[16] = tested on: Acinetobacter baumannii; test: MIC90 determination, clinical strains (CLSI); conditions: for MIC90: Acinetobacter baumannii, N=38, read-out: MIC 90 Acinetobacter baumannii
[17] = tested on: Proteus mirabilis; test: MIC90 determination, clinical strains (CLSI); conditions: for MIC90: Proteus mirabilis, N=12, read-out: MIC 90 Proteus mirabilis
[18] = tested on: CHO-K1 cells; test: In-vitro micronucleus assay
Protocol: Genetic toxicology studies were performed on the compounds of the present disclosure to assess their ability to cause DNA damage. The in-vitro micronucleus assay measured the concentration (μM) of the compound at which micronuclei formation occurred. A micronuclei formation at lower concentration indicates more genetic damage or genotoxicity.
Micronucleus formation is a hallmark of genotoxicity, and the micronucleus assay is an important component of genotoxicity screening. Micronuclei are chromatin-containing bodies that represent fragments or even whole chromosomes that were not incorporated into a daughter cell nucleus at mitosis. The purpose of the assay is to detect agents that induce chromosome damage leading to the induction of micronuclei in interphase cells. The in vitro micronucleus assay was conducted in CHO-K1 cells according to the procedure described by Diaz, D et al [Mutat Res. 630(1-2):1-13. […] The formation of the micronucleus is identified by image-based high content analysis from binucleated cells.

[19] = biological target: hERG potassium channel (Homo sapiens (Human), UniProt Q12809); test: hERG inhibition assay (Qpatch HTX automated electrophysiology); conditions: CHO cell line expressing hERG, whole-cell patch clamp
Chain of hERG potassium channel (Q12809 whole entry): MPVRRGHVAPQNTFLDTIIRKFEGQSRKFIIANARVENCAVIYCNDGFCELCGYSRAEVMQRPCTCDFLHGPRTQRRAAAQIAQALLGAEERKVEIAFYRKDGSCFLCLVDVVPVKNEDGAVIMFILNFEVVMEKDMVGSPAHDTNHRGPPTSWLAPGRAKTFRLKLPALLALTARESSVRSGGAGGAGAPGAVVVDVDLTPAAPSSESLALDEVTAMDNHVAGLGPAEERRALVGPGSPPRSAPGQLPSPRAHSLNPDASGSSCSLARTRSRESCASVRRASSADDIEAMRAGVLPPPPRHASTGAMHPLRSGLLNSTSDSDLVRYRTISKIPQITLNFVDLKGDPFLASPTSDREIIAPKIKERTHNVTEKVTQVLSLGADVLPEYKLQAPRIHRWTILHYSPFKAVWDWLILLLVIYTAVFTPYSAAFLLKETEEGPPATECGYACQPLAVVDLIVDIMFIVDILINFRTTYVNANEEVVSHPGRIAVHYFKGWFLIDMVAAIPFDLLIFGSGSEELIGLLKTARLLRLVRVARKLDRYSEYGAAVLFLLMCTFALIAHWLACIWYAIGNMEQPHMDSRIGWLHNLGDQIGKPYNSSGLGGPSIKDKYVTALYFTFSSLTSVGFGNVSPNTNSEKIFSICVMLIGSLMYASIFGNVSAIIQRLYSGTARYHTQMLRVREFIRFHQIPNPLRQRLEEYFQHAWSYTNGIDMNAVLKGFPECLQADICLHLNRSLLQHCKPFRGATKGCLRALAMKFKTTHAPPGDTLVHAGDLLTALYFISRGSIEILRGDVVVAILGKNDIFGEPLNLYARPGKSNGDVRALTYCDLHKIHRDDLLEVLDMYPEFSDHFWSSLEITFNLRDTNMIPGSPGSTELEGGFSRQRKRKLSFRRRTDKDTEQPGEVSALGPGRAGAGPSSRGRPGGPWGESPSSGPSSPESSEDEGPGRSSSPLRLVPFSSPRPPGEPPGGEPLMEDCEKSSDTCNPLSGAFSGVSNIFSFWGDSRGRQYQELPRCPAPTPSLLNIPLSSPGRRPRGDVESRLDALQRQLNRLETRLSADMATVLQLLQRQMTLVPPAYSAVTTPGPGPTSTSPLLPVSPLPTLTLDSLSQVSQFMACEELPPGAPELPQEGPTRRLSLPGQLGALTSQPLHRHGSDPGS
Protocol: Electrophysiological recordings were made from a Chinese Hamster Ovary cell line stably expressing the full-length hERG potassium channel. Single cell ionic currents were measured in whole-cell patch clamp configuration at room temperature (21-23° C.) using the Qpatch HTX platform (Sophion). Intracellular solution contained (mM): 120 KF, 20 KCl, 10 EGTA, 10 HEPES and was buffered to pH 7.3. […] Cells were clamped at a holding potential of −80 mV. Cells were stepped to +20 mV for 2 s then −40 mV for 3 s before returning to the holding potential. […] Compounds were then incubated for 2 minutes prior to a second measurement of ion channel current using an identical pulse train.

MIC90 [1] [µg/mL] | MIC90 [2] [µg/mL] | MIC90 [3] [µg/mL] | MIC [4] [µg/mL] | MIC [5] [µg/mL] | MIC [6] [µg/mL] | MIC [7] [µg/mL] | MIC [8] [µg/mL] | MIC [9] [µg/mL] | MIC90 [10] [µg/mL] | MIC90 [11] [µg/mL] | MIC90 [12] [µg/mL] | MIC90 [13] [µg/mL] | MIC90 [14] [µg/mL] | MIC90 [15] [µg/mL] | MIC90 [16] [µg/mL] | MIC90 [17] [µg/mL] | Compound | genotoxicity risk (in words) [18] | % (in-vitro micronucleus assay) ([18]; Chinese hamster) [%] | IC50 [19] [µM] | other results
4 (≈ 8.26 µM) | 4 (≈ 8.26 µM) | 4 (≈ 8.26 µM) | 0.03 (≈ 0.0619 µM) | 0.03 (≈ 0.0619 µM) | 0.03 (≈ 0.0619 µM) | < 0.015 | 0.03 (≈ 0.0619 µM) | 0.5 (≈ 1.03 µM) | 1 (≈ 2.06 µM) | 1 (≈ 2.06 µM) | 0.5 (≈ 1.03 µM) | 2 (≈ 4.13 µM) | 4 (≈ 8.26 µM) | 8 (≈ 16.5 µM) | 0.5 (≈ 1.03 µM) | 4 (≈ 8.26 µM) | Cn1c(=O)cnc2ccc(OCCNC[C@@H]3CN(c4cnc5c(n4)NC(=O)CS5)C(=O)O3)nc21 [Compound 3, (R)-5-(((2-((4-methyl-3-oxo-3,4-dihydropyrido[2,3-b]pyrazin-6-yl)oxy)ethyl)amino)methyl)-3-(3-oxo-3,4-dihydro-2H-pyrazino[2,3-b][1,4]thiazin-6-yl)oxazolidin-2-one] | completely devoid of any genotoxicity risk | 0.81 |  | micronucleus formation (in words) [18]: did not induce micronucleus formation; In vitro micronucleus forming concentration ([18]; Chinese hamster): >500 µM
4 (≈ 8.26 µM) | 4 (≈ 8.26 µM) | 8 (≈ 16.5 µM) | 0.06 (≈ 0.124 µM) | 0.06 (≈ 0.124 µM) | 0.03 (≈ 0.0619 µM) | 0.015 (≈ 0.031 µM) | 0.06 (≈ 0.124 µM) | 0.5 (≈ 1.03 µM) | 2 (≈ 4.13 µM) | 2 (≈ 4.13 µM) | 0.5 (≈ 1.03 µM) | 2 (≈ 4.13 µM) | 16 (≈ 33 µM) | 8 (≈ 16.5 µM) | 1 (≈ 2.06 µM) | 4 (≈ 8.26 µM) | Cn1c(=O)ccc2ncc(OCCNC[C@@H]3CN(c4cnc5c(n4)NC(=O)CS5)C(=O)O3)nc21 [Compound 4, (R)-5-(((2-((5-methyl-6-oxo-5,6-dihydropyrido[2,3-b]pyrazin-3-yl)oxy)ethyl)amino)methyl)-3-(3-oxo-3,4-dihydro-2H-pyrazino[2,3-b][1,4]thiazin-6-yl)oxazolidin-2-one] |  | 0.76 | > 300 | 
 |  |  |  |  |  |  |  |  |  |  |  |  |  |  |  |  | (S)-5-(((2-((4-Methyl-d3)-3-oxo-1,2,3,4-tetrahydropyrido[2,3-b]pyrazin-6-yl)oxy)ethyl)amino)methyl)-3-(3-oxo-3,4-dihydro-2H-pyrazino[2,3-b][1,4]thiazin-6-yl)oxazolidin-2-one [Compound 10] | completely devoid of any genotoxicity risk |  | 157 | MIC 90 Pseudomonas aeruginosa ([1]; N=34): 4 µg/mL; MIC 90 Klebsiella aerogenes, K. oxytoca ([2]; N=17): 2 µg/mL; MIC 90 Klebsiella pneumoniae ([3]; N=86): 8 µg/mL; Minimum Inhibitory Concentration E. coli ATCC 25922 [4]: 0.06 µg/mL; Minimum Inhibitory Concentration K. pneumoniae ATCC 13883 [5]: 0.06 µg/mL; Minimum Inhibitory Concentration A. baumannii ATCC 19606 [6]: 0.06 µg/mL; Minimum Inhibitory Concentration S. aureus ATCC 29213 [7]: <0.015 µg/mL; Minimum Inhibitory Concentration E. faecalis ATCC 29212 [8]: 0.125 µg/mL; Minimum Inhibitory Concentration Aeruginosa ATCC 27853 [9]: 1 µg/mL; MIC 90 Citrobacter freundii ([10]; N=19): 2 µg/mL; MIC 90 Morganella morganii ([11]; N=11): 1 µg/mL; MIC 90 Escherichia coli ([12]; N=38): 0.5 µg/mL; MIC 90 Providencia rettgeri, P. stuartii ([13]; N=12): 1 µg/mL; MIC 90 Serratia marcescens ([14]; N=15): 16 µg/mL; MIC 90 Enterobacter cloacae ([15]; N=26): 8 µg/mL; MIC 90 Acinetobacter baumannii ([16]; N=38): 1 µg/mL; MIC 90 Proteus mirabilis ([17]; N=12): 4 µg/mL; % (in-vitro micronucleus assay) ([18]; CHO-K1 cells): 0.45%; In vitro micronucleus forming concentration ([18]; CHO-K1 cells): >1000 µM
